Reference: patent US20260274910A1, “SINGLE FUSION PROTEIN AND PHARMACEUTICAL COMPOSITION” (MEDI&GENE INC., priority 2023, published 2026)

Experiments:
plasma proteins = test: Plasma protein binding test (PPB); format: in vitro ADME, mice; conditions: mouse plasma, 5 uM, 37° C., 4 hours, 100 kD filter, western blot
Experimental: Such an increase in half-life was further confirmed by measuring plasma protein binding rates (Plasma protein binding test, PPB). […] Each of the plasma of the mice and the fusion protein (SEQ ID NO: 13), and or His tag-wild-type substance (1-81) (SEQ ID NO: 5) was incubated at a concentration of 5 uM at 37° C. for 4 hours. After that, they were centrifuged with a 100 kD filter to obtain fractions of the substance bound to the plasma proteins or fractions of the unbound substance. Each of the obtained fractions was evaluated by western blot.

3T3-L1 adipocytes = test: Lipid droplet analysis (BODIPY 493/503, confocal) in 3T3-L1 adipocytes; format: cell-based, mouse; conditions: differentiated 3T3-L1 adipocytes, 100 nM, 30 hours
Experimental: (§1) To observe the functionality of the fusion proteins related to lipid metabolism, the 3T3-L1 mouse pre-adipocyte cell line was used as the cell line itself (undifferentiated) or by differentiating into adipocytes. Differentiation into the adipocytes was performed by inducing primary differentiation for the 3T3-L1 cells in a medium containing DMEM, 10% FBS, 10 μg/ml insulin, 0.5 mM IBMX (3-Isobutyl-1-methylxanthine), and 1 μM dexamethasone for 2 days, and inducing secondary differentiation with a medium containing DMEM, 10% FBS, and 10 μg/ml insulin for the remaining 4 days. The adipocytes in which differentiation was finally completed were treated with the test substances at a concentration of 100 nM for 30 hours (Control: PBS) and then used for each test.
In addition, lipid droplets of adipocytes were stained with BODIPY 493/503 dye sample, and then confocal image scanning was performed to analyze the size and diameter of the lipid droplets.

[1] = tested on: follicular cells (dermal papilla cells); test: Follicular cell proliferation by MTT assay; format: cell-based; conditions: 100 nM, 24 hours; compared with Control (PBS)
Experimental: Whether the test substances of the present invention has effects on preventing hair loss or promoting hair growth was evaluated as follows. Specifically, it was observed whether they have efficacy of improving loss of follicular cells in scalp tissue which is a cause of hair loss, or hair growth due to an increase in hair follicles, by using dermal papilla cells and evaluating cell proliferation of follicular cells.
The follicular cells were treated with each test substance 100 nM (control: PBS) for 24 hours, and the degree of cell proliferation was evaluated by MTT assay.

[2] = tested on: sciatic nerve transection mouse model; test: Sciatic nerve transection muscle atrophy model; format: in vivo, C57BL/6 male mice; conditions: versus control; for Grip strength: 5.0 mg/kg subcutaneous 6 times a week for 9 weeks; for Muscle mass (DXA assay): 5.0 mg/kg subcutaneous 6 times a week, fourth week
Experimental: The effects of the test substances on muscle diseases accompanied by muscle loss were evaluated using a sciatic nerve transection mouse model.
In the sciatic nerve transection mouse model, muscle atrophy was induced as follows. The thigh muscles of C57BL/6 male mice were transversely incised to expose sciatic nerves, and then the sciatic nerves were transected to weaken the nerves in the muscle tissue and induce muscle atrophy. The incised site was sutured, and a recovery period of one week was provided after the surgery.
To each mouse after the recovery period, the test substance (Control-PBS; and fusion protein) assigned to each group was subcutaneously injected at a concentration of 5.0 mg/kg 6 times a week for 9 weeks (Control: n=8, No. 13: n=9, No. 14: n=9, No. 15: n=8). The effects of improving muscle loss were measured with an X-ray body composition analyzer (DXA assay) in the fourth week of test substance administration, and the effects of improving muscle function was compared by measuring grip strength.

MDA-MB-231 cell line = test: Reactive oxygen generation (DCF-FA) in breast cancer cells; format: cell-based; conditions: 1 μM, 24 hours; compared with Control and SEQ ID NO: 5
Experimental: In addition, in order to examine generation of reactive oxygen that plays an important role in cancer cell death, each test substance was treated to the MDA-MB-231 cell line at a concentration of 1 μM (Control: PBS) for 24 hours. Then, the cells were stained with DCF-FA and their fluorescence values were observed and compared at 485/535 nm.

[3] = tested on: UCP-1 (uncoupling protein 1); test: UCP-1 expression (RT-PCR) in differentiated 3T3-L1 adipocytes; format: cell-based, mouse; conditions: 100 nM, 30 hours
Experimental: as §1
UCP-1 (uncoupling protein 1) is a representative biomarker related to thermogenesis, indicating browning and energy metabolism activation of adipocytes. In order to observe changes in expression of UCP-1 mRNA and protein by treatment of the fusion proteins, mRNA and protein were isolated from the cells treated with each test substance and RT-PCR and western blot were performed.

[4] = Half-life in mice, NIR dye-conjugated substance, plasma fluorescence
Experimental: For evaluation, ten-week-old C57BL/6 mice were used, and the mice were reared in a specialized animal facility which provided a normal diet and a 12/12 hour night/day cycle and then used for experimentation.
The synthetic peptide (SEQ ID NO: 8) and fusion protein (SEQ ID NO: 13) were each injected into the mice at a concentration of 2.5 mg/kg, and blood was collected at 0, 0.5, 2, 4, 24 hours after injection. The collected blood was centrifuged and the obtained plasma was analyzed. At this time, in order to perform effective quantification of the substances, each substance was conjugated with Dylight 680 Near-Infrared dye (NIR) in advance prior to injection, and the finally collected blood samples were examined by observing fluorescent signals with a SpectraMax i3 microplate reader device.

cAMP (cyclic AMP) = test: cAMP level (hTRF) in undifferentiated 3T3-L1 cells; format: cell-based, mouse; conditions: undifferentiated 3T3-L1, 100 nM with 0.5 mM IBMX, 30 minutes; compared with Control and SEQ ID NO: 5
Experimental: as §1
Next, changes in cAMP (cyclic AMP), a signaling mediator contributing to lipolysis and energy metabolism were evaluated in the undifferentiated adipocytes. The undifferentiated cells were treated with the test substances at a concentration of 100 nM (Control: PBS) with 0.5 mM IBMX for 30 minutes. Thereafter, the level of cAMP was evaluated by the hTRF (Homogeneous Time Resolved Fluorescence) method (using CAMP Gs dynamic kit from Cisbio). As a result of the measurement, it was confirmed that the level of cAMP was higher in the groups treated with the fusion proteins (SEQ ID NOs: 1, 2, 3, 7, 13, 14, 15) and shortened sequences (sequences 9, 10, 11) compared with the Control and His tag-wild-type substance (1-81) (SEQ ID NO: 5) (FIG. 7).

[5] = tested on: MDA-MB-231 triple-negative breast cancer cell line; test: MTT cell viability in breast cancer cells; format: cell-based; conditions: 1 μM, 48 hours; compared with Control (PBS), SEQ ID NO: 4 and SEQ ID NO: 5
Experimental: Next, the test substances, the fusion proteins (SEQ ID NO: 1, 2, 3, 7, 14, 15) and shortened sequences (SEQ ID NOs: 9, 10, 11, 12) were treated to MDA-MB-231 triple-negative breast cancer cell line at a concentration of 1 μM (Control: PBS) for 48 hours. Thereafter, the cells were washed with PBS once, and the cells were suspended in serum-free buffer. The MTT (3-[4,5-dimethylthiazol-2-yl]-2,5-diphenyltetrazolium bromide) substance was added thereto at 0.5 mg/ml and incubated at 37° C. for 2 hours. Then, they were washed with PBS once, and the cells were lysed with DMSO for 15 minutes. The solution was transferred to a new plate and the absorbance was measured at 590 nm using a microplate reader.

[6] = tested on: diet-induced obesity-induced impaired glucose tolerance mice; test: Diet-induced obesity-induced impaired glucose tolerance model (glucose tolerance test); format: in vivo, C57BL/6N mice; conditions: 5.0 mg/kg 1 hour before intraperitoneal 20% glucose, after 8 hours fasting
Experimental: In order to secure an impaired glucose tolerance model, conditions causing glucose metabolic disorders in mice by diet-induced obesity were designed. As an animal model, 5-week-old male C57BL/6N mice were obtained and after undergoing an acclimation period by providing a normal diet for 1 week, they were used, and the housing conditions were maintained at 18~24° C., 50~60% humidity, and ad libitum feeding with free access to feed and water was carried out during both the acclimation period and experimental period.
In order to induce impaired glucose tolerance to the mice which had undergone the acclimation period of 1 week, a high-fat diet was supplied to induce obesity. The high-fat diet was provided by preparing as Table 10 below.
The obesity-induced mice were divided into a control group (negative control group; n=14) and an experimental group (fusion protein SEQ ID NOs: 14, 15; No. 14: n=9, No. 15: n=9) and subjected to fasting for 8 hours. Thereafter, PBS to the control, and the fusion protein to the experimental group were administered at a concentration of 5.0 mg/kg, and after 1 hours, a 20% glucose solution was intraperitoneally injected. Blood was collected at each time point and analyzed using a glucometer.

[7] = tested on: Akt and S6 (phosphorylation, p-Akt/p-S6) in C2C12 mouse skeletal muscle cell line; test: Akt and S6 phosphorylation (western blot) in C2C12 muscle cells; format: cell-based; conditions: 2 hours
Experimental: In order to evaluate functions related to muscle loss diseases, each test substance was treated to the undifferentiated C2C12 mouse skeletal muscle cell line (mouse myoblast cell line) or the cell line in which differentiation into myotubes was completed. Differentiation of the cell line into myotubes was performed by conducting addition of 2% horse serum to culture medium and replacement with new medium every two days for a total of 4 days.
To the undifferentiated or differentiated cell lines, the test substances, fusion proteins (SEQ ID NOs: 1, 2, 3, 7, 14 and 15) were treated at a concentration of 100 nM (Control: PBS treated group) for 2 hours. Thereafter, the cells were immediately washed once and the cells were lysed with RIPA buffer (Radioimmunoprecipitation assay buffer). The activity of Akt and S6 (phosphorylation, p-Akt/p-S6) was observed by western blot. Akt phosphorylation is a well-known marker of activation of cell signaling pathways, and is an indicator of beneficial effects on muscle cells such as promotion of glucose metabolism and promotion of muscle biosynthesis. Similarly, S6 phosphorylation is a well-known marker of mTOR activity, and the activity of mTOR is an indicator showing muscle biosynthesis and various cell signaling pathways.

[8] = Table 6, C2C12, 100 nM, differentiation state not given

Row | Substance | Binding rate with the plasma proteins (plasma proteins) | Lipid droplet size (3T3-L1 adipocytes) | Maximum lipid droplet diameter per cell (3T3-L1 adipocytes) | Total lipid droplet area (3T3-L1 adipocytes) | Cell viability (MTT, cell proliferation) [1] | Grip strength [2] | Muscle mass (DXA assay) [2] | Reactive oxygen generation (MDA-MB-231 cell line) | mRNA level of UCP-1 [3] | Half-life increase of fusion protein versus synthetic peptide (SEQ ID NO: 8) ([4]; 2.5 mg/kg) | Half-life ([4]; injected at 2.5 mg/kg, Dylight 680 NIR-conjugated, plasma at 0, 0.5, 2, 4, 24 hours) | Level of cAMP (cAMP (cyclic AMP)) | Cell viability (MTT) [5] | Blood glucose variation over time (GLUAUC) compared with the control group [6] | Activity (% increase compared to control) Akt [7, 8] | Activity (% increase compared to control) S6 [7, 8] | Activity of Akt and S6 compared with control and His tag-wild-type substance (SEQ ID NO: 5) ([7]; differentiated cell line, 100 nM)
1 | SEQ ID NO: 13: Recombinant protein: Wild-type substance (1-81)-Shortened linker-Fc fusion | 74% | reduced at a significant level | reduced at a significant level | reduced at a significant level | significantly increased | higher performance | significantly increased | generated higher | significantly increased | approximately 11.8 times | 18.9 h | higher |  |  |  |  | 
2 | SEQ ID NO: 15: Recombinant protein: Shortened substance (1-47)-Shortened linker-Fc fusion |  |  |  |  | significantly increased | higher performance | significantly increased | generated higher |  |  |  | higher | significantly low | significant difference | 548% | 232% | significantly higher activity
